Laboratory results reported in US5489598A, “Cytoprotection utilizing aryltriazol-3-thiones” (Warner-Lambert Company, priority 1994, dated 1996).
pIC50: −log10 of the molar value.

Tests used:
Mac-1 (CD11b/CD18) = target: T1, Mac-1 (CD11b/CD18) (Homo sapiens, UniProt P05107+P11215); experiment: Human Neutrophil Mac-1 Adhesion Assay (PMN KLH); format: cell-based; details: human neutrophils, FMLP-stimulated, KLH coated plates
T1 construct: methodology to isolate neutrophils from ethylenediaminetetraacetic acid (EDTA)-treated venous blood obtained from healthy human volunteers; endogenous in cells; host or cells: neutrophils (PMN) freshly isolated from venous blood of healthy human volunteers
Procedure: Protocol for Human Neutrophil Mac-1 Adhesion Assay
We evaluated several 5-aryltriazol-3-thiones utilizing methodology similar to that of Ferrante and Thong as described in J. Immunol. […] Namely, we utilized Ferrante and Thong's methodology to isolate neutrophils from ethylenediaminetetraacetic acid (EDTA)-treated venous blood obtained from healthy human volunteers. Keyhole limpet hemocyanin (KLH) coated microtiter plates were prepared as follows:
All pipetting was automated using the Cetus Pro/Pette (Perkin-Elmer; division of Applied Biosystems, Foster, Calif.). KLH, Megathura crenulata; Calbiochem-Novabiochem, La Jolla, Calif., was prepared at a concentration of 0.5 mg/mL in Dulbecco's PBS phosphate buffered saline (PBS) with CA++, pH 7.2 (DPBS).
Microtiter plates are prewashed with 50% EtOH for 1 hour at 37° C., then drained and blotted to dryness. Then 0.3 mL KLH solution was pipetted into each well of the 96 well microtiter plate, covered and incubated overnight at 37° C. Plates are then inverted to drain, blotted to dryness, washed with 0.3 mL cold D-PBS, drained, blotted to dryness, then stored at 4° C. until use.
Procedure for PMN KLH (Mac-1 Adhesion Assay)
On the Pro/Pette system, a treatment plate was placed in plate position 1 (P-1), buffer Micro.trof was placed in plate position 2 (P-2), and a single row of tips in a spare magazine are placed in the tip position on the carriage. Two hundred ten μL aliquots D-PBS are pipetted into all wells (105 μL using Cetus File #18, Micro.trof 3, no mixes, tip row H, no tip change, run twice). Drug plate was placed in plate position 2 (P-2). Donor drug plates were prepared to contain buffer or drug in appropriate wells. Thirty μL drug or D-PBS buffer are pipetted into appropriate wells in the treatment plate in position 1 (P-1) (Cetus File #17, one mix before and after, changing tips) from donor plate. Thirty μL of neutrophils (PMNs) (30 μL of 10^7 cells/mL) were next pipetted from either a Micro.trof 1, position 2 (P-2), or a row of 0.5 mL capacity microcentrifuge tubes (Sarstedt RIA vials) to plate 1 using Cetus File #18, changing tips, one mix (50 μL) before and after. Cells and drug were then incubated for 10 minutes at 37° C. Agonist (e.g., FMLP) or D-PBS buffer (30 μL) were next pipetted to appropriate wells using Cetus File #18 (Micro.trof) or Cetus File #42 (for plate to plate), changing tips and one mix before and after. Cell/drug/agonist mixture was then incubated for 60 minutes at 37° C. After the incubation period, the treatment plate is gently inverted to drain, blotted lightly to dryness on a paper towel. The treatment plate is then washed with 300 μL D-PBS buffer using Cetus File #18, using pump at slow speed, again inverted to drain, and again blotted to dryness. Adherent cells are stained by the addition of 150 μL D-PBS buffer to all wells, using Cetus File #18, Micro.trof 3 no tip change. […] The treatment plate is then incubated overnight at 37° C.
After overnight incubation, the treatment plate is gently inverted to drain, blotted to dryness on paper towel, then gently washed with 300 μL D-PBS buffer using Cetus File #18, using pump at slow sped. The treatment plate is then gently inverted to drain, and blotted to dryness. The washing of the treatment plate is repeated until all excess dye is removed.
The treatment plate is then covered and incubated for 60 minutes at 37° C. After the incubation, 150 μL 50% EtOH is added to each well of the treatment plate using Cetus File #18, Micro.trof 3, mixing three times, changing tips. […]
a. mean unstimulated cell control OD is determined and subtracted from all other values b. mean net stimulated, e.g., FMLP, control values are determined c. mean drug values are determined and percent drug inhibition vs. stimulus control are calculated as follows: [formula] d. IC50 determinations, plotting logdose vs. percent inhibition, are determined by linear regression analysis using the least squares method.

[1] = test system: gastric damage (acidified aspirin); experiment: Cytoprotection study: gastric damage by oral acidified aspirin; format: in vivo, Sprague-Dawley rats; details: Rattus norvegicus; 1 mg/kg PO, 15 min before oral acidified aspirin 288 mg/kg; female rats
Procedure: Protocol for Cytoprotection Studies
For all studies, random-bred, barrier-raised, SPF, female Sprague-Dawley rats (Charles River Laboratories, Portage, Mich.) weighing 180-300 g were used. Animals were acclimated for at least 1 week prior to the studies and housed in wire bottom cages supplied with macrofiltered fresh tap water and Purina Rat Chow #5012 (Purina Mills Inc., Richmond, Ind.) ad libitum. The animal rooms were kept at 22° C.±1° C. and 50% humidity.
All animals were food fasted for 24 hours and water deprived for 2 or more hours prior to treatment administration. For oral dosing, Aspirin (acetylsalicylic acid, Sigma, St. Louis, Mo.) was dissolved in an aqueous solution of 150 mM HCl (Takeucvhi K., Digestive Disease and Science, 35:178-185 (1990)). Misoprostol was used as a standard. The test compound was dissolved in double glass distilled water, normal saline USP (NS) or the misoprostol phosphate buffer vehicle. All oral doses of misoprostol and test compounds were administered in a volume of 1 mL/animal. All oral dosing was done by gavage using a 3 mL syringe attached to a […], 17 gauge gavage needle.
The test compounds were administered in 1 mL 15 minutes prior to treatment with an oral dose of acidified aspirin (288 mg/kg in 150 mM HCl) given in 1 mL. Stomachs were removed to assess gastric damage 30 minutes after exposure to the damaging agent. The stomach was isolated through a midline incision in the abdomen followed by clamping of the esophagus and duodenum. Seven milliliters of 10% formalin (Fisher Scientific, Fair Lawn, N.J.) was injected into the stomach which was then excised and submerged in formalin for at least 10 minutes. The stomach was then opened along the greater curvature and pinned flat and submerged in formalin overnight. After the forestomach and exterior blood vessels were trimmed away, the tissues were clarified with glycerol (E. M. Science, Gibbstown, N.J.) and flattened between Plexiglass plates. Gastric damage was measured with a Cambridge Instruments LTD., (Cambridge, UK) Quantimet 970 Image Analysis System. Hemorrhagic damage appeared as darkened areas on a background of lighter undamaged tissue. This darker area was detected and surface area measured by the image analyzer. In addition, the complete stomachs were also completely submerged in 0.1N solution of iodine (J. T. Baker Chemical Co., Phillipsburg, N.J.), and the total stomach surface area was determined. The system was calibrated prior to each use with a standard sample. The percent damage and percent protection was computed by the following equation: [formula]

T1 sequence (P05107 23-769, other chains not shown): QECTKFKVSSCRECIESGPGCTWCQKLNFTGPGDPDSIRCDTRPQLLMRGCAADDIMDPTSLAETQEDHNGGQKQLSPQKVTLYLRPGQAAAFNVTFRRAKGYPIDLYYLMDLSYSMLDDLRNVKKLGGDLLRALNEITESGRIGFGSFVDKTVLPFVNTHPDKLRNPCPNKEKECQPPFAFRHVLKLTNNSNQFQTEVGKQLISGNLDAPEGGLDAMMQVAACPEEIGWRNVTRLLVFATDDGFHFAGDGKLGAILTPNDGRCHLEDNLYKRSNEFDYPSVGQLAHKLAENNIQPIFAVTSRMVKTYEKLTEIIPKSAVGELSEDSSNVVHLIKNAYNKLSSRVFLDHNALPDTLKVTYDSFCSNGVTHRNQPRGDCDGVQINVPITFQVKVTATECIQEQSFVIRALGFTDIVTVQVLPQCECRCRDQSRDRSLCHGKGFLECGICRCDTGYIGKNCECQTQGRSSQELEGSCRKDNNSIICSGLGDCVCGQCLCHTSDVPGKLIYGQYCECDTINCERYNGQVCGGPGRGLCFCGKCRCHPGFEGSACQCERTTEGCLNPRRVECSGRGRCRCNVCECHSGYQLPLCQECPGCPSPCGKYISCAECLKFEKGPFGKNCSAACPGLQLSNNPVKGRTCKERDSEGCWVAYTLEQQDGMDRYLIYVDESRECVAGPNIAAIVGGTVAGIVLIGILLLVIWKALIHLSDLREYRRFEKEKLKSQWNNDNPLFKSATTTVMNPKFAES

Row | SMILES | inhibition at 33 µM (Mac-1 (CD11b/CD18)) [%] | pIC50 (Mac-1 (CD11b/CD18)) | inhibition in vivo at 1 mg/kg [1] [%]
1 | CCn1c(-c2ccc(N)cc2)n[nH]c1=S [Example 2, 5-(4-aminophenyl)-4-ethyl-2,4-dihydro-[1,2,4]triazol-3-thione] | 36.9 | – | –
2 | CCn1c(-c2ccc(O)cc2)n[nH]c1=S [Example 4, 5-(4-hydroxyphenyl)-4-ethyl-2,4-dihydro-[1,2,4]triazol-3-thione] | – | 5.11 | –
3 | CCn1c(S)nnc1-c1ccccc1O [Example 5, 5-(2-hydroxyphenyl)-4-ethyl-2,4-dihydro-[1,2,4]triazol-3-thione] | – | 5.37 | –
4 | CCn1c(-c2cc(Cl)ccc2N)n[nH]c1=S [Example 6, 5-(2-amino-5-chlorophenyl)-4-ethyl-2,4-dihydro-[1,2,4]triazol-3-thione] | – | 6.10 | 55.1
5 | CCn1c(-c2cc(OC)c(OC)cc2N)n[nH]c1=S [Example 7, 5-(2-amino-4,5-dimethoxyphenyl)-4-ethyl-2,4-dihydro-[1,2,4]triazol-3-thione] | – | 5.15 | –
6 | CCn1c(-c2ccc(OC)cc2)n[nH]c1=S [Example 11, 5-(4-methoxyphenyl)-4-ethyl-2,4-dihydro-[1,2,4]triazol-3-thione] | – | 5.80 | 32.2
7 | CCn1c(-c2ccc(Cl)cc2Cl)n[nH]c1=S [Example 12, 5-(2,4-chlorophenyl)-4-ethyl-2,4-dihydro-[1,2,4]triazol-3-thione] | – | 5.68 | 59.4
8 | CCn1c(-c2ccc(OC)c(OC)c2)n[nH]c1=S [Example 16, 5-(3,4-dimethoxyphenyl)-4-ethyl-2,4-dihydro-[1,2,4]triazol-3-thione] | – | 5.51 | 62.2
9 | Cc1ccccc1-c1n[nH]c(=S)n1-c1ccccc1 [Example 22, 5-(2-methylphenyl)-2,4-dihydro-4-phenyl-3H-[1,2,4]-triazol-3-thione] | – | 6.70 | –
10 | Sc1nnc(-c2ccccc2)n1-c1ccccc1 [Example 23, 2,4-dihydro-4,5-diphenyl-3H-[1,2,4]-triazol-3-thione] | – | 5.96 | 21.4
11 | COc1ccccc1-c1n[nH]c(=S)n1-c1ccccc1 [Example 24, 5-(2-methoxyphenyl)-2,4-dihydro-4-phenyl-3H-[1,2,4]-triazol-3-thione] | – | 5.60 | –
12 | Sc1nnc(-c2ccccc2)n1Cc1ccccc1 [Example 25, 2,4-dihydro-5-phenyl-4-(phenylmethyl)-3H-[1,2,4]-triazol-3-thione] | – | 5.09 | –
13 | COc1ccc(-c2n[nH]c(=S)n2-c2ccccc2)cc1OC [Example 26, 5-(3,4-dimethoxyphenyl)-2,4-dihydro-4-phenyl-3H-1,2,4-triazol-3-thione] | – | 6.10 | –
14 | Oc1ccc(-c2n[nH]c(=S)n2-c2ccccc2)cc1 [Example 27, 5-(4-hydroxyphenyl)-2,4-dihydro-4-phenyl-3H-[1,2,4]-triazol-3-thione] | 6 | – | –
15 | COc1cccc(-c2n[nH]c(=S)n2-c2ccccc2)c1 [Example 28, 5-(3-methoxyphenyl)-2,4-dihydro-4-phenyl-3H-[1,2,4]-triazol-3-thione] | 60 | – | –
16 | Oc1ccc(-c2n[nH]c(=S)n2Cc2ccccc2)cc1 [Example 29, 5-(4-hydroxyphenyl)-2,4-dihydro-4-phenylmethyl-3H-[1,2,4]-triazol-3-thione] | 42 | – | –
17 | Nc1ccc(-c2n[nH]c(=S)n2-c2ccccc2)cc1 [Example 31, 5-(4-aminophenyl)-2,4-dihydro-4-phenyl-3H-[1,2,4]-triazol-3-thione] | 15 | – | –
18 | COc1ccc(-c2n[nH]c(=S)n2C)cc1OC [Example 32, 5-(3,4-dimethoxyphenyl)-2,4-dihydro-4-methyl-3H-[1,2,4]-triazol-3-thione] | – | 5.82 | 21.6
19 | COc1ccc(-c2n[nH]c(=S)n2-c2ccccc2)cc1 [Example 33, 5-(4-methoxyphenyl)-2,4-dihydro-4-phenyl-3H-[1,2,4]-triazol-3-thione] | – | 5.39 | –
20 | S=c1nc(-c2ccccc2)[nH][nH]1 [Example 34, 1,2-dihydro-5-phenyl-3H-[1,2,4]-triazol-3-thione] | 58 | – | –
21 | Nc1ccccc1-c1n[nH]c(=S)n1-c1ccccc1 [Example 35, 5-(aminophenyl)-2,4-dihydro-4-phenyl-3H-[1,2,4]-triazol-3-thione] | 24 | – | –
22 | CCn1c(-c2ccccc2N)n[nH]c1=S [Example 36, 5-(2-aminophenyl)-4-ethyl-2,4-dihydro-[1,2,4]triazol-3-thione] | – | 6.40 | 53.7
23 | CNc1ccccc1-c1n[nH]c(=S)n1-c1ccccc1 [Example 37, 5-(2-methylaminophenyl)-4-phenyl-2,4-dihydro-[1,2,4]triazol-3-thione] | 7 | – | –
24 | Cn1c(-c2ccccc2N)n[nH]c1=S [Example 38, 5-(2-Aminophenyl)-2,4-dihydro-4-methyl-4H-[1,2,4]triazol-3-thione] | -0.1 | – | 51.2
25 | Nc1ccccc1-c1n[nH]c(=S)n1N [Example 39, 4-Amino-5-(2-aminophenyl)-2,4-dihydro-3H-[1,2,4]triazol-3-thione] | 57 | – | –
